Source: PubChem BioAssay AID330 (DTP/NCI, 2004)
Values joined by “and” are separate entries in the source; they are usually repeats but may differ in a detail not shown here. Identical values can stand only once. Toxic doses and inconclusive results are not listed.

Test system: P388 leukemia ip, CD2F1 mice, survival T/C
Test: NCI In Vivo Anticancer Drug Screen. Data for tumor model P388 Leukemia (intraperitoneal) in CD2F1 (CDF1) mice
Conditions: endpoint: median survival time, higher = longer survival
Summary of the method: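 Mice carrying the transplanted tumor received test compound or vehicle. Survival was recorded in each group, and the value is the treated-group measurement divided by that of the vehicle-treated control group.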

[1] = dose: 50.0 mg/kg/injection, schedule: Q01DX005 (ip), vehicle: saline with Tween-80
[2] = dose: 100.0 mg/kg/injection, schedule: Q01DX005 (ip), vehicle: saline with Tween-80
[3] = dose: 200.0 mg/kg/injection, schedule: Q01DX005 (ip), vehicle: saline with Tween-80
[4] = dose: 100.0 mg/kg/injection, schedule: Q04DX003 (ip), vehicle: saline with Tween-80
[5] = dose: 200.0 mg/kg/injection, schedule: Q04DX003 (ip), vehicle: saline with Tween-80
[6] = dose: 100.0 mg/kg/injection, schedule: Q01DX009 (ip), vehicle: saline with Tween-80

With `CC(=O)Oc1ccccc1C(=O)OCC(=O)c1ccc2c(c1)Nc1ccccc1S2` the T/C (dose: 1.56 mg/kg/injection, schedule: Q01DX001 (ip), vehicle: Klucel (hydroxypropylcellulose) (HPC)) was 93 % of control, the T/C (dose: 3.13 mg/kg/injection, schedule: Q01DX001 (ip), vehicle: Klucel (hydroxypropylcellulose) (HPC)) was 95 % of control and the T/C (dose: 6.25 mg/kg/injection, schedule: Q01DX001 (ip), vehicle: Klucel (hydroxypropylcellulose) (HPC)) was 90 % of control. For the same molecule, the T/C (dose: 50.0 mg/kg/injection, schedule: Q01DX001 (ip), vehicle: Klucel (hydroxypropylcellulose) (HPC)) was 87 % of control and the T/C (dose: 200.0 mg/kg/injection, schedule: Q01DX001 (ip), vehicle: Klucel (hydroxypropylcellulose) (HPC)) was 94 % of control.
`C/C(=N\NC(=S)NCc1ccccc1)c1nccnc1C` was tested, and the T/C (dose: 3.13 mg/kg/injection, schedule: Q01DX005 (ip), vehicle: saline with Tween-80) was 104 % of control and the T/C (dose: 6.25 mg/kg/injection, schedule: Q01DX005 (ip), vehicle: saline with Tween-80) was 109 % of control and 112 % of control.
For `COc1ccc(CCN)c(OC)c1OC`, the T/C (dose: 50.0 mg/kg/injection, schedule: Q01DX009 (ip), vehicle: saline) was 105 % of control and 107 % of control and the T/C (dose: 100.0 mg/kg/injection, schedule: Q01DX009 (ip), vehicle: saline) was 104 % of control and 110 % of control.
For `CC(=O)NC1=C(C#N)CCCC1`, the T/C (dose: 100.0 mg/kg/injection, schedule: Q04DX003 (ip), vehicle: saline) was 101 % of control, the T/C (dose: 200.0 mg/kg/injection, schedule: Q04DX003 (ip), vehicle: saline) was 104 % of control and the T/C (dose: 400.0 mg/kg/injection, schedule: Q04DX003 (ip), vehicle: saline) was 100 % of control.
In the case of `C[c-]1[c-][c-][c-][c-]1.[C-]#[O+].[C-]#[O+].[C-]#[O+].[Mn]`, the T/C (dose: 12.5 mg/kg/injection, schedule: Q01DX005 (ip), vehicle: Klucel (hydroxypropylcellulose) (HPC)) is reported as 94 % of control, the T/C (dose: 25.0 mg/kg/injection, schedule: Q01DX005 (ip), vehicle: Klucel (hydroxypropylcellulose) (HPC)) is reported as 95 % of control and the T/C (dose: 50.0 mg/kg/injection, schedule: Q01DX005 (ip), vehicle: Klucel (hydroxypropylcellulose) (HPC)) is reported as 99 % of control. For the same molecule, the T/C (dose: 100.0 mg/kg/injection, schedule: Q01DX005 (ip), vehicle: Klucel (hydroxypropylcellulose) (HPC)) was 99 % of control.
In the case of `CSc1nc2ccc(NC(=O)CCC(=O)O)cc2s1`, the T/C (dose: 6.25 mg/kg/injection, schedule: Q01DX009 (ip), vehicle: Klucel (hydroxypropylcellulose) (HPC)) is reported as 104 % of control, the T/C (dose: 12.5 mg/kg/injection, schedule: Q01DX009 (ip), vehicle: Klucel (hydroxypropylcellulose) (HPC)) is reported as 101 % of control and the T/C (dose: 25.0 mg/kg/injection, schedule: Q01DX009 (ip), vehicle: Klucel (hydroxypropylcellulose) (HPC)) is reported as 107 % of control.
`CNc1ccc(O)c2c1C(=O)c1ccccc1C2=O` was tested, and the T/C (dose: 25.0 mg/kg/injection, schedule: Q04DX002 (ip), vehicle: saline with Tween-80) was 93 % of control, the T/C (dose: 50.0 mg/kg/injection, schedule: Q04DX002 (ip), vehicle: saline with Tween-80) was 92 % of control and the T/C (dose: 100.0 mg/kg/injection, schedule: Q04DX002 (ip), vehicle: saline with Tween-80) was 101 % of control. For the same molecule, the T/C (dose: 200.0 mg/kg/injection, schedule: Q04DX002 (ip), vehicle: saline with Tween-80) was 109 % of control.
`C/C(N=NC(=S)N1CCCCC1)=C1\C=CC=CN1O` was tested, and the T/C [1] was 106 % of control, the T/C [2] was 98 % of control and the T/C [3] was 105 % of control.
`CN1CCC(C(=O)O)(c2ccccc2)CC1` was tested, and the T/C (dose: 9.4 mg/kg/injection, schedule: Q01DX009 (ip), vehicle: saline with Tween-80) was 100 % of control, the T/C (dose: 18.8 mg/kg/injection, schedule: Q01DX009 (ip), vehicle: saline with Tween-80) was 98 % of control and the T/C (dose: 37.5 mg/kg/injection, schedule: Q01DX009 (ip), vehicle: saline with Tween-80) was 97 % of control. For the same molecule, the T/C (dose: 75.0 mg/kg/injection, schedule: Q01DX009 (ip), vehicle: saline with Tween-80) was 111 % of control.
For `CC(=O)Nn1cnc2ccccc2c1=O`, the T/C (dose: 25.0 mg/kg/injection, schedule: Q04DX003 (ip), vehicle: saline with Tween-80) was 97 % of control, the T/C (dose: 50.0 mg/kg/injection, schedule: Q04DX003 (ip), vehicle: saline with Tween-80) was 90 % of control and the T/C [4] was 93 % of control. For the same molecule, the T/C [5] was 101 % of control.
With `OCc1c(CO)c(-c2ccc(Cl)cc2)n2c1CCC2` the T/C (dose: 12.5 mg/kg/injection, schedule: Q01DX005 (ip), vehicle: distilled water + Tween-80) was 120 % of control, the T/C (dose: 25.0 mg/kg/injection, schedule: Q01DX005 (ip), vehicle: distilled water + Tween-80) was 111 % of control and 120 % of control and the T/C (dose: 50.0 mg/kg/injection, schedule: Q01DX005 (ip), vehicle: distilled water + Tween-80) was 112 % of control. The T/C (dose: 100.0 mg/kg/injection, schedule: Q01DX005 (ip), vehicle: distilled water + Tween-80) was 156 % of control, the T/C (dose: 200.0 mg/kg/injection, schedule: Q01DX005 (ip), vehicle: distilled water + Tween-80) was 186 % of control and the T/C (dose: 400.0 mg/kg/injection, schedule: Q01DX005 (ip), vehicle: distilled water + Tween-80) was 157 % of control.
With `O=C1NC2C(CC(O)C(O)C2O)c2cc3c(c(O)c21)OCO3` (stereo not drawn) the T/C (dose: 0.19 mg/kg/injection, schedule: Q01DX009 (ip), vehicle: saline + alcohol) was 103 % of control, the T/C (dose: 0.38 mg/kg/injection, schedule: Q01DX009 (ip), vehicle: saline + alcohol) was 111 % of control and the T/C (dose: 0.75 mg/kg/injection, schedule: Q01DX009 (ip), vehicle: saline + alcohol) was 116 % of control. For the same molecule, the T/C (dose: 1.44 mg/kg/injection, schedule: Q01DX009 (ip), vehicle: saline + alcohol) was 107 % of control, the T/C (dose: 1.5 mg/kg/injection, schedule: Q01DX009 (ip), vehicle: saline + alcohol) was 117 % of control and the T/C (dose: 2.88 mg/kg/injection, schedule: Q01DX009 (ip), vehicle: saline + alcohol) was 115 % of control. The T/C (dose: 5.75 mg/kg/injection, schedule: Q01DX009 (ip), vehicle: saline + alcohol) was 115 % of control and the T/C (dose: 11.5 mg/kg/injection, schedule: Q01DX009 (ip), vehicle: saline + alcohol) was 115 % of control.
`NC(C(=O)O)C(=O)c1ccccc1` (stereo not drawn) was tested, and the T/C [6] was 100 % of control, the T/C (dose: 200.0 mg/kg/injection, schedule: Q01DX009 (ip), vehicle: saline with Tween-80) was 100 % of control and the T/C (dose: 400.0 mg/kg/injection, schedule: Q01DX009 (ip), vehicle: saline with Tween-80) was 118 % of control.
With `CC(=O)OC1OC(CO)C(OCc2ccccc2)C(OCc2ccccc2)C1OC(C)=O` (stereo not drawn) the T/C (dose: 4.0 mg/kg/injection, schedule: Q01DX009 (ip), vehicle: other) was 116 % of control, the T/C (dose: 8.0 mg/kg/injection, schedule: Q01DX009 (ip), vehicle: other) was 104 % of control and the T/C (dose: 16.0 mg/kg/injection, schedule: Q01DX009 (ip), vehicle: other) was 100 % of control. The T/C (dose: 32.0 mg/kg/injection, schedule: Q01DX009 (ip), vehicle: other) was 92 % of control, the T/C (dose: 50.0 mg/kg/injection, schedule: Q01DX009 (ip), vehicle: other) was 99 % of control and the T/C (dose: 64.0 mg/kg/injection, schedule: Q01DX009 (ip), vehicle: other) was 98 % of control. For the same molecule, the T/C (dose: 100.0 mg/kg/injection, schedule: Q01DX009 (ip), vehicle: other) was 99 % of control, the T/C (dose: 200.0 mg/kg/injection, schedule: Q01DX009 (ip), vehicle: other) was 99 % of control and the T/C (dose: 400.0 mg/kg/injection, schedule: Q01DX009 (ip), vehicle: other) was 99 % of control.
For `COc1ccc([I+]c2ccccc2)cc1`, the T/C (dose: 1.5 mg/kg/injection, schedule: Q01DX009 (ip), vehicle: saline) was 109 % of control, the T/C (dose: 2.5 mg/kg/injection, schedule: Q01DX009 (ip), vehicle: saline sonified) was 100 % of control and the T/C (dose: 3.0 mg/kg/injection, schedule: Q01DX009 (ip), vehicle: saline) was 109 % of control. For the same molecule, the T/C (dose: 6.0 mg/kg/injection, schedule: Q01DX009 (ip), vehicle: saline) was 122 % of control.
For `CN1CC=Nc2c1nc(N)[nH]c2=O`, the T/C (dose: 50.0 mg/kg/injection, schedule: Q01DX009 (ip), vehicle: saline with Tween-80) was 98 % of control and the T/C [6] was 95 % of control.
For `CCOC(=O)c1ccc(N2C(=O)C3C4C=CC(O4)C3C2=O)cc1` (stereo not drawn), the T/C (dose: 100.0 mg/kg/injection, schedule: Q04DX003 (ip), vehicle: Klucel (hydroxypropylcellulose) (HPC)) was 112 % of control, the T/C (dose: 200.0 mg/kg/injection, schedule: Q04DX003 (ip), vehicle: Klucel (hydroxypropylcellulose) (HPC)) was 105 % of control and the T/C (dose: 400.0 mg/kg/injection, schedule: Q04DX003 (ip), vehicle: Klucel (hydroxypropylcellulose) (HPC)) was 111 % of control.
`O=C(CNC(=O)n1ccnc1)N/N=C/c1ccco1` was tested, and the T/C [1] was 95 % of control, the T/C [2] was 92 % of control and the T/C [3] was 89 % of control.
For `CC(=O)N(C)c1ccc(Nc2ccc(Nc3ccc(N(C)C(C)=O)cc3)c3c2C(=O)c2ccccc2C3=O)cc1`, the T/C [1] was 100 % of control, the T/C [2] was 100 % of control and the T/C [3] was 99 % of control.
With `CCOC(=O)C(C=O)(NC(=O)c1ccccc1)OCC` (stereo not drawn) the T/C [4] was 95 % of control, the T/C [5] was 90 % of control and the T/C (dose: 400.0 mg/kg/injection, schedule: Q04DX003 (ip), vehicle: saline with Tween-80) was 95 % of control.
